The numbers were not newly measured in patent publication US20170080084A1, “OIL/SURFACTANT MIXTURES FOR SELF-EMULSIFICATION” (priority 2014, published 2017), which cites them from elsewhere.

For this series the following is noted: readily available values.
Sorbitan monooleate: the HLB was 4.3.
Take polyoxyethylene (10) lauryl ether: the HLB is reported as 17.
`CCCCCCCCCCCCOS(=O)(=O)[O-].[Na+]` [SDS]: the HLB is listed as 40.
In the case of “polyoxyethylene sorbitan monooleate [polysorbate 80]”, the HLB is 15.
As to polyoxyethylene cetostearyl ether, the HLB is on record as 13.5.
